Data as given in ChEMBL document CHEMBL5120932, “Discovery and Optimization of Seven-Membered Lactam-Based Compounds to Phenocopy the Inhibition of the Aurora Kinase B” (ACS Med Chem Lett, 2022).
The source made the active and inactive calls. The rule behind the calls is not given here.

Tested on: NCI-H23
Experiment: Cytotoxicity against human NCI-H23 cells assessed as reduction in cell proliferation at 10 uM measured after 3 days by MTT assay
Assay type: functional, cell-based
Conditions: time 3.0 day
With `COC(=O)C1=C(O)c2ccccc2N(Cc2ccc(C)c(F)c2)C(=O)C1` the Activity was “Active”. In the case of `COC(=O)C1=C(O)c2ccccc2N(Cc2ccc(OC)c(F)c2)C(=O)C1`, the Activity is reported as “Active”. With `COC(=O)C1=C(O)c2ccccc2N(Cc2ccc(C)cc2)C(=O)C1` the Activity was “Active”. With `COC(=O)C1=C(O)c2ccccc2N(Cc2ccc(OC)cc2)C(=O)C1` the Activity was “Active”. With `COC(=O)C1=C(O)c2scc(C)c2N(Cc2ccc(C)c(F)c2)C(=O)C1` the Activity was “Active”. With `CCc1ccc(CN2C(=O)CC(C(=O)OC)=C(O)c3ccccc32)cc1` the Activity was “Active”.

Tested on: A549
Experiment: Cytotoxicity against human A549 cells assessed as reduction in cell viability measured after 6 days by MTT assay
Assay type: functional, cell-based
Conditions: time 6.0 day
In the case of `COC(=O)C1=C(O)c2ccccc2N(Cc2ccc(C)c(F)c2)C(=O)C1`, the Activity is reported as “Active”. In the case of `COC(=O)C1=C(O)c2ccccc2N(Cc2ccc(OC)c(F)c2)C(=O)C1`, the Activity is reported as “Active”. With `COC(=O)C1=C(O)c2ccccc2N(Cc2ccc(OC)cc2)C(=O)C1` the Activity was “Active”. For `CCc1ccc(CN2C(=O)CC(C(=O)OC)=C(O)c3ccccc32)cc1`, the Activity was “Active”.

Tested on: MDA-MB-231
Experiment: Cytotoxicity against human MDA-MB-231 cells assessed as reduction in cell viability measured after 6 days by MTT assay
Assay type: functional, cell-based
Conditions: time 6.0 day
In the case of `COC(=O)C1=C(O)c2ccccc2N(Cc2ccc(C)c(F)c2)C(=O)C1`, the Activity is reported as “Active”. For `COC(=O)C1=C(O)c2ccccc2N(Cc2ccc(OC)c(F)c2)C(=O)C1`, the Activity was “Active”. With `COC(=O)C1=C(O)c2ccccc2N(Cc2ccc(OC)cc2)C(=O)C1` the Activity was “Active”. With `CCc1ccc(CN2C(=O)CC(C(=O)OC)=C(O)c3ccccc32)cc1` the Activity was “Active”.

Tested on: MDA-MB-231
Experiment: Cytotoxicity against human MDA-MB-231 cells assessed as reduction in cell proliferation at 10 uM measured after 3 days by MTT assay
Assay type: functional, cell-based
Conditions: time 3.0 day
For `COC(=O)C1=C(O)c2ccccc2N(Cc2ccc(C)c(F)c2)C(=O)C1`, the Activity was “Active”. For `COC(=O)C1=C(O)c2ccccc2N(Cc2ccc(OC)c(F)c2)C(=O)C1`, the Activity was “Active”. With `COC(=O)C1=C(O)c2ccccc2N(Cc2ccc(C)cc2)C(=O)C1` the Activity was “Active”. In the case of `COC(=O)C1=C(O)c2ccccc2N(Cc2ccc(OC)cc2)C(=O)C1`, the Activity is reported as “Active”. For `COC(=O)C1=C(O)c2scc(C)c2N(Cc2ccc(C)c(F)c2)C(=O)C1`, the Activity was “Active”. In the case of `CCc1ccc(CN2C(=O)CC(C(=O)OC)=C(O)c3ccccc32)cc1`, the Activity is reported as “Active”.

Tested on: HCT-116
Experiment: Cytotoxicity against human HCT-116 cells assessed as reduction in cell viability measured after 6 days by MTT assay
Assay type: functional, cell-based
Conditions: time 6.0 day
For `COC(=O)C1=C(O)c2ccccc2N(Cc2ccc(C)c(F)c2)C(=O)C1`, the Activity was “Active”. For `COC(=O)C1=C(O)c2ccccc2N(Cc2ccc(OC)c(F)c2)C(=O)C1`, the Activity was “Active”. In the case of `COC(=O)C1=C(O)c2ccccc2N(Cc2ccc(OC)cc2)C(=O)C1`, the Activity is reported as “Active”. For `CCc1ccc(CN2C(=O)CC(C(=O)OC)=C(O)c3ccccc32)cc1`, the Activity was “Active”.

Tested on: NCI-N87
Experiment: Cytotoxicity against human NCI-N87 cells assessed as reduction in cell viability measured after 6 days by MTT assay
Assay type: functional, cell-based
Conditions: time 6.0 day
With `COC(=O)C1=C(O)c2ccccc2N(Cc2ccc(C)c(F)c2)C(=O)C1` the Activity was “Active”. For `COC(=O)C1=C(O)c2ccccc2N(Cc2ccc(OC)c(F)c2)C(=O)C1`, the Activity was “Active”. For `COC(=O)C1=C(O)c2ccccc2N(Cc2ccc(OC)cc2)C(=O)C1`, the Activity was “Active”. In the case of `CCc1ccc(CN2C(=O)CC(C(=O)OC)=C(O)c3ccccc32)cc1`, the Activity is reported as “Active”.

Tested on: NCI-H460
Experiment: Cytotoxicity against human NCI-H460 cells assessed as reduction in cell viability measured after 6 days by MTT assay
Assay type: functional, cell-based
Conditions: time 6.0 day
With `COC(=O)C1=C(O)c2ccccc2N(Cc2ccc(C)c(F)c2)C(=O)C1` the Activity was “Active”. With `COC(=O)C1=C(O)c2ccccc2N(Cc2ccc(OC)c(F)c2)C(=O)C1` the Activity was “Active”. With `COC(=O)C1=C(O)c2ccccc2N(Cc2ccc(OC)cc2)C(=O)C1` the Activity was “Active”. For `CCc1ccc(CN2C(=O)CC(C(=O)OC)=C(O)c3ccccc32)cc1`, the Activity was “Active”.

Tested on: NCI-H596
Experiment: Cytotoxicity against human NCI-H596 cells assessed as reduction in cell viability measured after 6 days by MTT assay
Assay type: functional, cell-based
Conditions: time 6.0 day
In the case of `COC(=O)C1=C(O)c2ccccc2N(Cc2ccc(C)c(F)c2)C(=O)C1`, the Activity is reported as “Active”. With `COC(=O)C1=C(O)c2ccccc2N(Cc2ccc(OC)c(F)c2)C(=O)C1` the Activity was “Active”. In the case of `COC(=O)C1=C(O)c2ccccc2N(Cc2ccc(OC)cc2)C(=O)C1`, the Activity is reported as “Active”. For `CCc1ccc(CN2C(=O)CC(C(=O)OC)=C(O)c3ccccc32)cc1`, the Activity was “Active”.

Tested on: DU-145
Experiment: Cytotoxicity against human DU-145 cells assessed as reduction in cell viability measured after 6 days by MTT assay
Assay type: functional, cell-based
Conditions: time 6.0 day
With `COC(=O)C1=C(O)c2ccccc2N(Cc2ccc(C)c(F)c2)C(=O)C1` the Activity was “Active”. With `COC(=O)C1=C(O)c2ccccc2N(Cc2ccc(OC)c(F)c2)C(=O)C1` the Activity was “Active”. For `COC(=O)C1=C(O)c2ccccc2N(Cc2ccc(OC)cc2)C(=O)C1`, the Activity was “Active”. With `CCc1ccc(CN2C(=O)CC(C(=O)OC)=C(O)c3ccccc32)cc1` the Activity was “Active”.

Tested on: HCT-116
Experiment: Cytotoxicity against human HCT-116 cells assessed as reduction in cell proliferation at 10 uM measured after 3 days by MTT assay
Assay type: functional, cell-based
Conditions: time 3.0 day
In the case of `COC(=O)C1=C(O)c2ccccc2N(Cc2ccc(C)c(F)c2)C(=O)C1`, the Activity is reported as “Active”. With `COC(=O)C1=C(O)c2ccccc2N(Cc2ccc(OC)c(F)c2)C(=O)C1` the Activity was “Active”. For `COC(=O)C1=C(O)c2ccccc2N(Cc2ccc(C)cc2)C(=O)C1`, the Activity was “Active”. In the case of `COC(=O)C1=C(O)c2ccccc2N(Cc2ccc(OC)cc2)C(=O)C1`, the Activity is reported as “Active”. For `COC(=O)C1=C(O)c2scc(C)c2N(Cc2ccc(C)c(F)c2)C(=O)C1`, the Activity was “Active”.

Tested on: NCI-H23
Experiment: Cytotoxicity against human NCI-H23 cells assessed as reduction in cell viability measured after 6 days by MTT assay
Assay type: functional, cell-based
Conditions: time 6.0 day
With `COC(=O)C1=C(O)c2ccccc2N(Cc2ccc(C)c(F)c2)C(=O)C1` the Activity was “Active”. In the case of `COC(=O)C1=C(O)c2ccccc2N(Cc2ccc(OC)c(F)c2)C(=O)C1`, the Activity is reported as “Active”. In the case of `COC(=O)C1=C(O)c2ccccc2N(Cc2ccc(OC)cc2)C(=O)C1`, the Activity is reported as “Active”. With `CCc1ccc(CN2C(=O)CC(C(=O)OC)=C(O)c3ccccc32)cc1` the Activity was “Active”.

Tested on: DU-145
Experiment: Cytotoxicity against human DU-145 cells assessed as reduction in cell proliferation at 10 uM measured after 3 days by MTT assay
Assay type: functional, cell-based
Conditions: time 3.0 day
In the case of `COC(=O)C1=C(O)c2ccccc2N(Cc2ccc(C)c(F)c2)C(=O)C1`, the Activity is reported as “Active”. With `COC(=O)C1=C(O)c2ccccc2N(Cc2ccc(OC)c(F)c2)C(=O)C1` the Activity was “Active”. With `COC(=O)C1=C(O)c2ccccc2N(Cc2ccc(C)cc2)C(=O)C1` the Activity was “Active”. For `COC(=O)C1=C(O)c2ccccc2N(Cc2ccc(OC)cc2)C(=O)C1`, the Activity was “Active”. In the case of `COC(=O)C1=C(O)c2scc(C)c2N(Cc2ccc(C)c(F)c2)C(=O)C1`, the Activity is reported as “Active”. With `CCc1ccc(CN2C(=O)CC(C(=O)OC)=C(O)c3ccccc32)cc1` the Activity was “Active”.

Tested on: Calu-6
Experiment: Cytotoxicity against human Calu-6 cells assessed as reduction in cell viability measured after 6 days by MTT assay
Assay type: functional, cell-based
Conditions: time 6.0 day
With `COC(=O)C1=C(O)c2ccccc2N(Cc2ccc(C)c(F)c2)C(=O)C1` the Activity was “Active”. In the case of `COC(=O)C1=C(O)c2ccccc2N(Cc2ccc(OC)c(F)c2)C(=O)C1`, the Activity is reported as “Active”. For `COC(=O)C1=C(O)c2ccccc2N(Cc2ccc(OC)cc2)C(=O)C1`, the Activity was “Active”. In the case of `CCc1ccc(CN2C(=O)CC(C(=O)OC)=C(O)c3ccccc32)cc1`, the Activity is reported as “Active”.

Molecular target: T1, Aurora kinase A (Homo sapiens) (UniProt O14965)
T1 sequence (whole entry): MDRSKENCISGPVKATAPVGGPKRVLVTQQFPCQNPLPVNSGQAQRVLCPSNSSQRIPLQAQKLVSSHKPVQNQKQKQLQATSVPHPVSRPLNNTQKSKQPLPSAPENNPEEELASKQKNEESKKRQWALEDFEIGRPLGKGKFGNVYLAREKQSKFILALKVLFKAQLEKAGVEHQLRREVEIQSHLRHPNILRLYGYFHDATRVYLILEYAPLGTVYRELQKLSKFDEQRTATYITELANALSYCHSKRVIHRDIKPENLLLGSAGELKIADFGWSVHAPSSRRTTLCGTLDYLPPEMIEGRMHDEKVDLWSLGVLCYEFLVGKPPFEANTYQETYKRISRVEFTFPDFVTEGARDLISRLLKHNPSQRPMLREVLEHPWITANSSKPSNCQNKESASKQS
Experiment: Inhibition of AURKA in human RPE cells over expressing H2B-GFP-fused MYC assessed as reduction in autophosphorylation at Thr288 residues at 0.64 uM measured after 6 hrs by immunofluorescence assay
Assay type: cell-based
Conditions: not given
With `COC(=O)C1=C(O)c2ccccc2N(Cc2ccc(OC)c(F)c2)C(=O)C1` the inhibition was “Active”.

Tested on: NCI-N87
Experiment: Cytotoxicity against human NCI-N87 cells assessed as reduction in cell proliferation at 10 uM measured after 3 days by MTT assay
Assay type: functional, cell-based
Conditions: time 3.0 day
In the case of `COC(=O)C1=C(O)c2ccccc2N(Cc2ccc(C)c(F)c2)C(=O)C1`, the Activity is reported as “Active”. In the case of `COC(=O)C1=C(O)c2ccccc2N(Cc2ccc(OC)c(F)c2)C(=O)C1`, the Activity is reported as “Active”. For `COC(=O)C1=C(O)c2ccccc2N(Cc2ccc(C)cc2)C(=O)C1`, the Activity was “Active”. With `COC(=O)C1=C(O)c2ccccc2N(Cc2ccc(OC)cc2)C(=O)C1` the Activity was “Active”. With `COC(=O)C1=C(O)c2scc(C)c2N(Cc2ccc(C)c(F)c2)C(=O)C1` the Activity was “Active”. In the case of `CCc1ccc(CN2C(=O)CC(C(=O)OC)=C(O)c3ccccc32)cc1`, the Activity is reported as “Active”.

Tested on: not listed separately
Experiment: Induction of mitotic arrest in human RPE cells over expressing H2B-GFP-fused MYC assessed as minimum effective concentration for polyploidy measured after 24 to 72 hrs by fluorescence microscopy
Assay type: functional
Conditions: time 24-72 hrs, read-out: MEC
With `COC(=O)C1=C(O)c2ccccc2N(Cc2ccc(C)c(F)c2)C(=O)C1` the minimal effective concentration was 0.019 µM. `COC(=O)C1=C(O)c2ccccc2N(Cc2ccc(OC)c(F)c2)C(=O)C1` showed a minimal effective concentration of 0.039 µM. With `COC(=O)C1=C(O)c2ccccc2N(Cc2ccc(C)cc2)C(=O)C1` the minimal effective concentration was 0.625 µM. With `COC(=O)C1=C(O)c2ccccc2N(Cc2ccc(OC)cc2)C(=O)C1` the minimal effective concentration was 0.156 µM. `COC(=O)C1=C(O)c2scc(C)c2N(Cc2ccc(C)c(F)c2)C(=O)C1` showed a minimal effective concentration of 0.312 µM. Work on `CCc1ccc(CN2C(=O)CC(C(=O)OC)=C(O)c3ccccc32)cc1` yielded a minimal effective concentration of 0.078 µM.

Tested on: not listed separately
Experiment: Induction of mitotic arrest in human RPE cells over expressing H2B-GFP-fused MYC assessed as increase in polyploidy at 40 uM measured after 24 to 72 hrs by fluorescence microscopy
Assay type: functional
Conditions: time 24-72 hrs
With `COC(=O)C1=C(O)c2ccccc2N(Cc2ccc(C)c(F)c2)C(=O)C1` the Activity was 30%. In the case of `COC(=O)C1=C(O)c2ccccc2N(Cc2ccc(OC)c(F)c2)C(=O)C1`, the Activity is reported as 70%. In the case of `COC(=O)C1=C(O)c2ccccc2N(Cc2ccc(C)cc2)C(=O)C1`, the Activity is reported as 10%. In the case of `COC(=O)C1=C(O)c2ccccc2N(Cc2ccc(OC)cc2)C(=O)C1`, the Activity is reported as 80%. With `COC(=O)C1=C(O)c2scc(C)c2N(Cc2ccc(C)c(F)c2)C(=O)C1` the Activity was 100%. `CCc1ccc(CN2C(=O)CC(C(=O)OC)=C(O)c3ccccc32)cc1` gave an Activity of 10%.
